Laboratory results reported in patent publication US7348425B2, “Inhibitors of HCV replication” (Bristol-Myers Squibb Company, priority 2004, dated 2008).
Read-outs that look alike come from different tables or passages of the source.

How the values were obtained:
[1] = tested on: HCV replicon; assay: HCV replicon luciferase assay; type: cell-based, Hepatitis C virus; conditions: luciferase method, read-out: EC50
Method in brief: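 Replicon cells, some carrying a Renilla luciferase reporter, were incubated with titrated compound at 37 °C; Alamar blue measured cytotoxicity, followed by a kinetic FRET peptide read (340/490 nm) or Dual-Glo luciferase. Activity was normalized to untreated controls after subtracting background from high-dose protease inhibitor wells; EC50 was the concentration giving 50% signal reduction.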

[2] = biological target: T1, HCV NS5B RdRp genotype 1b (Hepatitis C virus genotype 1b, UniProt Q9WMX2); assay: Standard HCV NS5B RdRp enzyme assay; type: biochemical; conditions: standard method
T1 construct: The protein was expressed with an 18 amino acid C-terminal truncation to enhance the solubility; made in house; host or cells: E. coli BL21 (DE3), pET21a
T1 sequence (Q9WMX2 2420-2992): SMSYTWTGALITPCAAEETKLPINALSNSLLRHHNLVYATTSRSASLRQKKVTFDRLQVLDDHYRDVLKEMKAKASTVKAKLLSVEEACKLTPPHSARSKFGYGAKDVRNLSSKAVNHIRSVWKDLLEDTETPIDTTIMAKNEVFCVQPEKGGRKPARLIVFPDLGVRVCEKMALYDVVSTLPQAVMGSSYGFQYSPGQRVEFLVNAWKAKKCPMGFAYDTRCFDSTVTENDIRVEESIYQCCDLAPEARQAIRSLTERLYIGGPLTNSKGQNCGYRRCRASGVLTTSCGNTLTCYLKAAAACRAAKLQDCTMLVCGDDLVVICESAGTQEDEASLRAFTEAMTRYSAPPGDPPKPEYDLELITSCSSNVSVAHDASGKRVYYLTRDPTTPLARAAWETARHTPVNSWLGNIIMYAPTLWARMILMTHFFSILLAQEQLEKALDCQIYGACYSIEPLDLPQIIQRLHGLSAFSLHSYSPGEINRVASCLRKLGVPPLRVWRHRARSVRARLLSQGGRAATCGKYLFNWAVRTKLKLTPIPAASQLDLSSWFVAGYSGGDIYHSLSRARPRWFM
Method in brief: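 C-terminally truncated (18 aa) genotype 1b NS5B from E. coli, 28 nM, with 6 nM polyA template, 180 nM biotin-oligo-dT12 primer and ³H-UTP (0.29 μM total UTP) in pH 7.5 Hepes buffer, 2% DMSO. 60 min at 30° C, EDTA/SPA-bead stop; IC50 from seven concentrations by four-parameter fit.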

[3] = tested on: HCV; conditions: cited from earlier work

**Q.** What does the source list for `O=C(O)/C=C/c1cccc(-c2nc(C3(NC(=O)c4ccc5c(C6CCCCC6)c6n(c5c4)CC=Cc4ccccc4-6)CCCC3)no2)c1` [Example 26]?
**A.** EC50 ([1]; Hepatitis C virus): 0.1 to 1 µM; IC50 [2]: > 1 µM

**Q.** For `O=C(O)/C=C/c1ccc(NC(=O)C2(NC(=O)c3ccc4c(C5CCCCC5)c5n(c4c3)CCCc3ccccc3-5)CCNCC2)cc1` [Example 29, 2-propenoic acid, 3-[4-[[[4-[[(13-cyclohexyl-6,7-dihydro-5H-indolo[2,1-a][2]benzazepin-10-yl)carbonyl]amino]-4-piperidinyl]carbonyl]amino]phenyl]-, (2E)-], which EC50 ([1]; Hepatitis C virus) is on record?
**A.** < 0.1 µM

**Q.** And the IC50 [2]?
**A.** 0.1 to 1 µM

**Q.** For `COC(=O)/C=C/c1ccc(NC(=O)C2(NC(=O)c3ccc4c(C5CCCCC5)c5n(c4c3)CC(=O)Nc3cccnc3-5)CCCC2)cc1` [drawing 98], which EC50 ([1]; Hepatitis C virus) is on record?
**A.** < 0.1 µM

**Q.** What about the IC50 [2] of the same compound?
**A.** > 1 µM

**Q.** With `O=C(O)c1ccc2c(C3CCCCC3)c3n(c2c1)CC(C(=O)N1CCOCC1)Cc1ccccc1-3` (centres unmarked) [drawing 113] as the compound, how does the EC50 [1] read?
**A.** 0.1 to 1 µM

**Q.** And the IC50 [2]?
**A.** 0.1 to 1 µM

**Q.** Which EC50 [1] does the source give for `O=C(O)c1ccc2c(C3CCCCC3)c3n(c2c1)CC(C(=O)N1CCOCC1)Cc1ccccc1-3` (centres unmarked) [drawing 114] here?
**A.** 1 to 10 µM

**Q.** What about the IC50 [2] of the same compound?
**A.** > 1 µM

**Q.** Which EC50 [1] does the source give for `O=C(O)c1ccc2c(C3CCCCC3)c3n(c2c1)CC(C(=O)N1CCOCC1)Cc1ccccc1-3` (centres unmarked) [drawing 115] here?
**A.** 0.1 to 1 µM

**Q.** What about the IC50 [2] of the same compound?
**A.** 0.1 to 1 µM

**Q.** What does the source list for `O=C(O)c1ccc2c(C3CCCCC3)c3n(c2c1)CC(C(=O)N1CCCCC1)Cc1ccccc1-3` (centres unmarked) [drawing 116]?
**A.** EC50 [1]: 0.1 to 1 µM; IC50 [2]: 0.1 to 1 µM

**Q.** With `O=C(O)c1ccc2c(C3CCCCC3)c3n(c2c1)CC(C(=O)N1CCCCC1)Cc1ccccc1-3` (centres unmarked) [drawing 117] as the compound, how does the EC50 [1] read?
**A.** 1 to 10 µM

**Q.** What about the IC50 [2] of the same compound?
**A.** > 1 µM

**Q.** For `O=C(O)c1ccc2c(C3CCCCC3)c3n(c2c1)CC(C(=O)N1CCCCC1)Cc1ccccc1-3` (centres unmarked) [drawing 118], which EC50 [1] is on record?
**A.** 0.1 to 1 µM

**Q.** And the IC50 [2]?
**A.** 0.1 to 1 µM

**Q.** What does the source list for `O=C(O)c1ccc2c(C3CCCCC3)c3n(c2c1)CC(C(=O)N1CCCC(O)C1)Cc1ccccc1-3` (centres unmarked) [drawing 119]?
**A.** EC50 [1]: 0.1 to 1 µM; IC50 [2]: 0.1 to 1 µM

**Q.** For `O=C(O)c1ccc2c(C3CCCCC3)c3n(c2c1)CC(C(=O)N1CCCC(O)C1)Cc1ccccc1-3` (centres unmarked) [drawing 120], which EC50 [1] is on record?
**A.** 1 to 10 µM

**Q.** What about the IC50 [2] of the same compound?
**A.** > 1 µM

**Q.** Which EC50 [1] does the source give for `O=C(O)c1ccc2c(C3CCCCC3)c3n(c2c1)CC(C(=O)N1CCCC(O)C1)Cc1ccccc1-3` (centres unmarked) [drawing 121] here?
**A.** 0.1 to 1 µM

**Q.** And the IC50 [2]?
**A.** 0.1 to 1 µM

**Q.** With “alpha-interferon and ribavirin [reference compound]” as the compound, how does the “sustained efficacy, share of patients” value ([3]; HCV patients, combination therapy) read?
**A.** 40%

**Q.** For pegylated alpha-interferon, which “clinical results as monotherapy” value ([3]; compared with unmodified alpha-interferon) is on record?
**A.** superior to unmodified alpha-interferon
